Article PMC6131691 (Chirality, 2012)
Like-named read-outs stand apart in the source and are kept apart here. Marks after values point to notes of the source that are not given here.

Columns and labels:
[1] = tested on: human intestinal S9 fractions (mixture of SULT enzymes); settings: pH 7.4
[2] = tested on: SULT1A1*2
[3] = tested on: SULT1A1*1
[4] = tested on: human intestinal S9 fractions (mixture of SULT enzymes); settings: for Reduction of (R,R)-MF conjugation at equimolar concentrations: equimolar with 50 µM [3H]-(R,R)-MF
[5] = tested on: β2-AR; settings: relative to (R,R)-MF; ref unpublished data; cited from earlier work
[6] = tested on: SULT1A3
[7] = tested on: human intestinal S9 fractions (mixture of SULT enzymes); experiment: Kinetics of sulfation of MF stereoisomers by human intestinal S9 fractions; settings: read-out: Km (Michaelis constant) of sulfation; human intestinal S9 1 mg/ml, 200 µM PAPS, pH 7.4, 60 min; mean ± SE
[8] = tested on: SULT1A3; experiment: cDNA-expressed SULT isoform screen, SULT1A3; settings: relative to SULT1A1*1, SULT1A1*2, SULT1E1
[9] = tested on: 1321N1 tumors; settings: tumors implanted in the flank of SKID mice; cited from earlier work
[10] = tested on: human-derived 1321N1 astrocytoma cells; settings: read-out: IC50, inhibition of mitogenesis; cited from earlier work
[11] = tested on: SULT isoforms; experiment: cDNA-expressed SULT isoform screen, comparison of stereoisomers across isoforms; assay type: in vitro ADME, human; settings: in each of the SULT isoforms
[12] = humans; cited from earlier work
[13] = tested on: SULT1E1

COc1ccc(CC(C)NCC(O)c2cc(O)cc(O)c2)cc1 [(R,S)-MF, 4-methoxyfenoterol]
Km [1]: 68.5 ± 3.2 µM | SULT1A1*2-catalyzed sulfation, greater than SULT1A3 and SULT1E1 [2]: 1.5 fold | SULT1A1*1-catalyzed sulfation, greater than SULT1A3 and SULT1E1 [3]: 1.5 fold | IC50 [4]: > 400 µM | Reduction of (R,R)-MF conjugation at equimolar concentrations ([4]; human intestinal S9): little effect

COc1ccc(CC(C)NCC(O)c2cc(O)cc(O)c2)cc1 [(S,R)-MF, 4-methoxyfenoterol]
Km [1]: 52 µM | β2-AR agonist activity as share of that of (R,R)-MF [5]: less than 5% | Reduction in the production of (R,R)-MF sulfate ([4]; 2:1 ratio of (S,R)-MF/(R,R)-MF, human intestinal S9): 61% | Reduction of (R,R)-MF conjugation at equimolar concentrations ([4]; human intestinal S9): ~ 40% | SULT1A3-mediated conjugation, greater than the sulfation by the other isoforms [6]: 1.5- to 2 fold

COc1ccc(C[C@@H](C)NC[C@H](O)c2cc(O)cc(O)c2)cc1 [(R,R)-MF, (R,R)-4-methoxyfenoterol]
Km [7]: 62 ± 1.27 µM | SULT1A3-mediated conjugation, greater than the sulfation by the other isoforms [8]: 1.5- to 2 fold | Growth of 1321N1 tumors [9]: retards the growth | IC50 [10]: 0.00017 µM | Sulfation rate compared with (S,S)-MF, (R,S)-MF and (S,R)-MF [11]: significantly (P < 0.0001) lower

CC(Cc1ccc(O)cc1)NCC(O)c1cc(O)cc(O)c1 [(R,R;S,S)-Fen, fenoterol]
Oral bioavailability [12]: ~ 2%

COc1ccc(CC(C)NCC(O)c2cc(O)cc(O)c2)cc1 [(S,S)-MF, 4-methoxyfenoterol]
Km [1]: 89 µM | Km (Michaelis constant) of sulfation [1]: 89.21 ^a ± 2.59 µM | Activity of SULT1E1, lower than SULT1A1*1, SULT1A1*2 and SULT1A3 [13]: 1.3 fold | IC50 [4]: > 200 µM | Reduction of (R,R)-MF conjugation at equimolar concentrations ([4]; human intestinal S9): little effect
